Results on two compounds are retold here after ChEMBL document CHEMBL1129179, “Antimicrobial evaluation of 3,1-benzoxazin-4-ones, 3,1-benzothiazin-4-ones, 4-alkoxyquinazolin-2-carbonitriles and N-arylimino-1,2,3-dithiazoles” (1996).

Usually MIC stands for the smallest concentration in the dilution series that meets the test's criterion for growth inhibition. High values mean weaker potency, low ones greater potency.

≈ marks a conversion by molar mass, not a printed value.

Holding throughout (format): functional
Test [1] in a line: Ratio of MFC99/MIC for antifungal activity against Cryptococcus neoformans DSM 70219 strain was determined.
Test [2] relates to Candida albicans. The experiment in a line: Minimum fungicidal concentration required for antifungal activity against Candida albicans ATCC 10231 strain.
Test [3] in a line: Ratio of MFC99/MIC for antifungal activity against Candida glabrata DSM 6425 strain was determined.
Test [4] relates to Cryptococcus neoformans. The test can be described thus: Minimum inhibitory concentration required for antifungal activity against Cryptococcus neoformans DSM 70219 strain.
In test [5] the test system is Candida albicans. The experiment in a line: Minimum inhibitory concentration required for antifungal activity against Candida albicans ATCC 10231 strain.
In test [6] the test system is Cryptococcus neoformans. The experiment in a line: Minimum fungicidal concentration required for antifungal activity against Cryptococcus neoformans DSM 70219 strain.
The test system of test [7] is Pichia kudriavzevii. The experiment in a line: Minimum inhibitory concentration required for antifungal activity against Issatchenkia orientalis DSM 6128 strain.
Test [8] relates to Pichia kudriavzevii. The experiment in a line: Minimum fungicidal concentration required for antifungal activity against Issatchenkia orientalis DSM 6128 strain.
Test [9] has as its system Candida tropicalis. The test can be described thus: Minimum fungicidal concentration required for antifungal activity against Candida tropicalis DSM 1346 strain.
The subject of test [10] is Nakaseomyces glabratus. The test can be described thus: Minimum inhibitory concentration required for antifungal activity against Candida glabrata DSM 6425 strain.
Test [11] in a line: Ratio of MFC99/MIC for antifungal activity against Candida albicans ATCC 10231 strain was determined.
For test [12], the system named is Nakaseomyces glabratus. The test can be described thus: Minimum fungicidal concentration required for antifungal activity against Candida glabrata DSM 6425 strain.
Test [13] relates to Candida tropicalis. The experiment in a line: Minimum inhibitory concentration required for antifungal activity against Candida tropicalis DSM 1346 strain.
A short description of test [14]: Ratio of MFC99/MIC for antifungal activity against Issatchenkia orientalis DSM 6128 strain was determined.
Test [15] is described as follows: Ratio of MFC99/MIC for antifungal activity against Candida tropicalis DSM 1346 strain was determined.

Consider `N#Cc1ccccc1/N=c1\ssnc1Cl`, for which the Ratio in [1], in test [3], in [11], in test [14] and in [15] was 1 throughout. Also, the MFC99 against Candida albicans [2], against Cryptococcus neoformans [6], with Pichia kudriavzevii [8], against Candida tropicalis [9] and against Nakaseomyces glabratus [12] was 16 µg/mL (≈ 63.1 µM) in each case. For the same compound, the MIC in the test with Cryptococcus neoformans [4], in the test with Candida albicans [5], against Pichia kudriavzevii [7], against Nakaseomyces glabratus [10] and against Candida tropicalis [13] was 16 µg/mL (≈ 63.1 µM) each time.
For `COc1ccc(/N=c2\ssnc2Cl)cc1OC`, the Ratio in test [1] worked out at 2; in test [3], 1; in test [11], 1; in test [14] it was 2; in test [15], 2. Moreover, the MFC99 with Candida albicans [2] was found to be 16 µg/mL (≈ 55.4 µM); in the test with Cryptococcus neoformans [6], 32 µg/mL (≈ 111 µM); with Pichia kudriavzevii [8] it was 32 µg/mL (≈ 111 µM); with Candida tropicalis [9], 32 µg/mL (≈ 111 µM); in the test with Nakaseomyces glabratus [12], 16 µg/mL (≈ 55.4 µM). For the same compound, the MIC with Cryptococcus neoformans [4], with Candida albicans [5], in the test on Pichia kudriavzevii [7], in the test with Nakaseomyces glabratus [10] and against Candida tropicalis [13] was 16 µg/mL (≈ 55.4 µM) throughout.
